Where two headings read alike, the source gives them in different places.
How the values were obtained:
[1] = system: HCT116 p53+/+ cells; assay: Antiproliferative activity, sulforhodamine B (SRB) assay; format: cell-based, human; details: for S.I. (selectivity index): HCT116 p53−/− versus HCT116 p53+/+; for GI50: Homo sapiens, HCT-116, 48 h treatment, read-out: HCT116 p53+/+ GI50
Description: (§1) Tumor cells were cultured in RPMI-1640 with UltraGlutamine (Lonza, VWR), supplemented with 10% fetal bovine serum (FBS; Gibco, Alfagene) and maintained in a humidified incubator at 37 °C with 5% CO2. Cell lines were seeded in 96-well plates at the cells/well density of 5.0 × 10^3.

[2] = system: HCT116 p53−/− cells; assay: as above; format: cell-based, human; details: Homo sapiens, HCT-116, 48 h, 48 h treatment, read-out: HCT116 p53−/− GI50
Description: as §1

[3] = Human plasma incubations (stability); format: in vitro ADME; details: 37 °C, 40 μM
Description: Human plasma incubations were performed in duplicate, at 37 °C, by standard methodology. Specifically, incubations contained 40 μM of the test compound for a final volume of 1 mL. The mixtures were incubated for a total time of 24 h, and aliquots following 0, 30, 60, 120, 180 min and 24 h and quenched with a cold solution of reserpine 0.1 mM in acetonitrile. Following centrifugation (10,000 rpm, 10 min, RT), the clear supernatants were collected and analyzed by LC-ESI(+)-MS/MS. Additional control assays were conducted using PBS pH 7.4 instead of plasma solution and using procaine as a positive control.

[4] = Human liver microsomes incubations: half-life and intrinsic clearance; format: in vitro ADME; details: for Intrinsic Clearance / clearance classification: HLM; for Intrinsic Clearance: calculated from half-life (Equation 2); for clearance classification: classification after ref 32; for half-life at 10 μM: human, liver microsomes, pH 7.4, HLM 1 mg protein/mL, NADPH, 37 °C
Description: (§2) For the generation of Phase I metabolites: tested compounds, at a 10 μM concentration (1 μL of 5 mM DMSO stock solution), were incubated with HLM (1 mg protein/mL), Vivid® regenerating system (5 μL) and NADPH (1mM) in ABIC 50 mM buffer pH 7.4, for a total incubation volume of 500 μL. Incubations were run in duplicate, at 37 °C. Aliquots were collected at 0, 5, 10, 20, 30, 40, 50, 60, 75, 90, 120, 180 min and reactions were stopped by adding and ice-cold solution of reserpine (2.5 μM) in acetonitrile. Additional aliquots were taken at 0 and 120 min and subsequently treated with L-lysine (100 µM) and sodium cyanoborohydride (10 µM) or glutathione (100 µM). Following centrifugation (10,000 rpm, 15 min, RT), the clear supernatants were collected and analyzed LC-ESI-HRMS/MS. Control incubations were conducted in the same conditions: (1) using DMSO as negative control, in absence of the test drug; (2) using heat-denatured HLM (90 °C, 15 min); (3) using nevirapine, as a positive control, instead of the tested compound; and (4) in absence of NADPH co-factor.
The in vitro depletion half-lives of tested compounds t1/2 were calculated using Equation (1), assuming that testing compounds follow a first-order kinetic trend. The “slope” was determined from linear fitting of the natural logarithm of the concentration of drug remaining plotted against time:(1) t1/2=ln2/slope
The intrinsic clearance in HLM (CLint, HLM) was calculated using Equation (2):(2) CLint HLM =ln2/ t1/2 x mL incubation/mg microsomes x 45 mg microsomes/g liver x 26 g liver/Kg b.w.

[5] = Glucuronidation in alamethicin induced-HLM with NADPH and UDPGA; format: in vitro ADME, human; details: NADPH, UDPGA, LC-ESI(-)-HRMS/MS
Description: For the generation of glucuronidation metabolites: HLM were preincubated for 15 min with alamethicin (25 µg/mL). Incubations were then run in duplicate at 37 °C, using the following conditions: test compounds at a concentration of 25 µM (1 μL of DMSO stock solution 5 mM), HLM (1 mg/mL, 10 μL), NADPH (5 mM), MgCl2 (2 mM), UDPGA (5 mM) for a final volume of 200 μL, in 50 mM ABIC buffer pH 7.4. Control incubations were conducted in the same conditions using: (1) DMSO as negative control, in absence of the test compound; (2) heat-denatured HLM (90 °C, 15 min); and (3) in absence of UDPGA co-factor. Aliquots (50 μL) were collected at 0 and 2 h and then quenched with 50 μL of a cold 2.5 μM reserpine solution in acetonitrile. All the samples were vortexed and centrifuged for 15 min at 10,000 rpm. The supernatants were collected and stored at −20 °C until further analysis by LC-ESI-HRMS/MS.

[6] = Bioactivation: S9 rat liver fraction and HLM incubations in the presence of glutathione; format: in vitro ADME, human
Description: as §2, with “Control incubations were conducted in the same conditions: (1) using DMSO as negative control, in absence of the test drug; (2) using heat-denatured HLM (90 °C, 15 min); (3) using nevirapine, as a positive control, instead of the tested compound; and (4) in absence of NADPH co-factor.” left out
Tested compounds at a 10 μM concentration (1 μL of 5 mM DMSO stock solution) were incubated with rat liver S9 fraction (2 mg protein/mL), Vivid® regenerating system (2 μL) and NADPH (1mM) in ABIC 50 mM buffer pH 7.4, for a total incubation volume of 500 μL. […] Following centrifugation (10,000 rpm, 15 min, RT) the clear supernatants were collected and analyzed LC-ESI-HRMS/MS. […]

[7] = system: HCT116 p53+/+ cells; parameters: method as in PMID 26735173; details: 48 h treatment; cited from earlier work
[8] = system: HCT116 p53−/− cells; parameters: method as in PMID 26735173; details: 48 h treatment; cited from earlier work
[9] = parameters: method as in PMID 26735173; details: cited from earlier work
[10] = In vitro reactions with bionucleophiles
Description: To a solution of compound 13d in acetonitrile (1.00 eq., 10.1 mg in 400 µL, 5.04 × 10^−2 M) reduced glutathione (4.00 eq. 25.2 mg, 82.00 µmol) dissolved in 400 µL of ABIC buffer 50 mM pH 7.4 was added. The reaction mixture was incubated for 24 h at 37 °C and monitored by LC-ESI-HRMS/MS.
To a solution of compound 13k in acetonitrile (1.00 eq., 4.3 mg in 200 µL, 3.92 × 10^−2 M) reduced glutathione (4.00 eq. 9.64 mg, 31.36 µmol) dissolved in 200 µL of ABIC buffer 50 mM pH 7.4 was added. The reaction mixture was incubated for 24 h at 37 °C and monitored by LC-ESI-HRMS/MS.
SLMP53-1_M5 (1.00 eq., 2.1 mg, dissolved in 150 µL of ACN) was added to a L-lysine (2 eq.) solution in 50 mM ABIC buffer pH 7.4. Following incubation for 24 h at 37 °C a solution of cyanoborohydride (2 eq) was added. The mixture was analyzed by LC-ESI(+)-HRMS/MS.

[11] = mean ± SEM of 3–5 independent experiments
[12] = mean ± SEM of 5 independent experiments

GI50 [1, 11] [µM]	GI50 [2, 11] [µM]	stability towards plasmatic enzymes [3]	Intrinsic Clearance ([4]; listed as SLMP53-2 (7)) [mL/min/kg]	clearance classification [4]	half-life at 10 μM [4] [h]	Intrinsic Clearance [4] [mL/min/kg]	GSH adducts identified ([6]; S9 rat liver fraction and HLM in the presence of GSH)	GI50 [1, 12] [µM]	GI50 [2, 12] [µM]	reaction products upon L-lysine incubation ([10]; followed by reductive stabilization, 24 h, 37 °C)	Structure (SMILES)	S.I. (selectivity index) [1]	Phase II (glucuronic acid conjugate) metabolites identified [5]	GI50 [7] [µM]	GI50 [8] [µM]	toxicity alerts in vivo [9]	GSH adducts stemming from the bioactivation of Phase I metabolites ([6]; S9 rat liver fraction incubation in the presence of GSH)	products of addition of GSH with concomitant loss of bromine ([10]; with or without enzymatic conditions (S9 rat liver incubations))
8.4 ± 1.1	17.7 ± 2.3	stable towards plasmatic enzymes for 3 h	2.75	low clearance	2.45	–	–	–	–	–	Cn1cc(C[C@H]2CO[C@]3(c4ccccc4)c4ccccc4C(=O)N23)c2ccccc21 [SLMP53-2]	2.1	no Phase II metabolites were identified	–	–	–	–	–
–	–	stable towards plasmatic enzymes for 3 h	–	low clearance	2.3	3.67	Two GSH adducts were identified	–	–	–	CC12OCC(Cc3c[nH]c4ccccc34)N1C(=O)c1ccccc12 (stereo not shown) [SLMP53-1]	–	two glucuronic acid conjugates were identified	15.6 ± 1.6	34 ± 3.5	not associated with toxicity alerts	–	–
8.09 ± 2.01	30.5 ± 2.1	–	–	low clearance	2.45	3.4	–	–	–	–	O=C1c2ccccc2[C@@]2(c3ccccc3)OC[C@H](Cc3c(Br)n(Cc4ccccc4)c4ccccc34)N12 [Compound 13k, (3S, 9bR)-3-((1-benzyl-2-bromo-1H-indol-3-yl)methyl)-9b-phenyl-2,3-dihydrooxazolo[2,3-a]isoindol-5(9bH)-one]	3.8	–	–	–	–	no adducts stemming from the bioactivation of Phase I metabolites were identified	no products compatible with the addition of GSH, and the concomitant loss of bromine, were detected
–	–	–	–	–	–	–	–	48.8 ± 2.3	44 ± 1.8	no reaction products were obtained	C[C@]12OC[C@H](CC(=O)c3ccccc3NC=O)N1C(=O)c1ccccc12 [SLMP53-1_M5, N-(2-(2-((3S,9bR)-9b-methyl-5-oxo-2,3,5,9b-tetrahydrooxazolo[2,3-a]isoindol-3-yl)acetyl)phenyl)formamide]	–	–	–	–	–	–	–

Source: publication PMC9967700, “Metabolism-Guided Optimization of Tryptophanol-Derived Isoindolinone p53 Activators” (Pharmaceuticals, 2023)
